Results reported in paper PMC5218480 (PLoS ONE, 2017).

Test system: MV-4-11 cells
Assay: Gene expression microarray analysis (Affymetrix PrimeView) and GSEA
Assay type: cell-based, human
Design: RFU PODN (11730768_x_at) / Fold change /veh PODN (11730768_x_at) / RFU LINC00158 (11744669_a_at) / Fold change /veh LINC00158 (11744669_a_at) / RFU DUSP10 (11751237_a_at) / Fold change /veh DUSP10 (11751237_a_at) / RFU ID3 (11757404_x_at) / Fold change /veh ID3 (11757404_x_at) / RFU PLEKHG5 (11737974_s_at) / Fold change /veh PLEKHG5 (11737974_s_at) / RFU LRRC4B (11730491_at) / Fold change /veh LRRC4B (11730491_at) / RFU GIMAP4 (11747438_a_at) / Fold change /veh GIMAP4 (11747438_a_at) / RFU KRT8 (11758183_x_at) / Fold change /veh KRT8 (11758183_x_at) / RFU CNN1 (11734310_a_at) / Fold change /veh CNN1 (11734310_a_at) / RFU VPS37D (11726825_at) / Fold change /veh VPS37D (11726825_at) / RFU C10orf10 (11716522_x_at) / Fold change /veh C10orf10 (11716522_x_at) / RFU KIR2DL2 /// KIR2DL4 /// KIR2DL5A /// KIR2DL5B /// KIR2DS1 /// KIR2DS2 /// KIR2DS3 /// KIR2DS4 /// KIR3DL3 /// KIR3DL3 /// KIR3DS1 (11738374_at) / Fold change /veh KIR2DL2 /// KIR2DL4 /// KIR2DL5A /// KIR2DL5B /// KIR2DS1 /// KIR2DS2 /// KIR2DS3 /// KIR2DS4 /// KIR3DL3 /// KIR3DL3 /// KIR3DS1 (11738374_at) / RFU C1QL1 (11718748_at) / Fold change /veh C1QL1 (11718748_at) / RFU TMPRSS4 (11747572_a_at) / Fold change /veh TMPRSS4 (11747572_a_at) / RFU HAMP (11756126_x_at) / Fold change /veh HAMP (11756126_x_at) / RFU RNFT2 (11725882_a_at) / Fold change /veh RNFT2 (11725882_a_at) / RFU NR4A2 (11747474_a_at) / Fold change /veh NR4A2 (11747474_a_at) / RFU ABCC12 (11746883_a_at) / Fold change /veh ABCC12 (11746883_a_at) / RFU TMEM136 (11760407_x_at) / Fold change /veh TMEM136 (11760407_x_at) / RFU CLDN22 /// WWC2 (11732394_at) / Fold change /veh CLDN22 /// WWC2 (11732394_at) / RFU HLA-DPB1 (11760878_x_at) / Fold change /veh HLA-DPB1 (11760878_x_at) / RFU SPINT1 (11716480_a_at) / Fold change /veh SPINT1 (11716480_a_at) / RFU GAP43 (11754022_s_at) / Fold change /veh GAP43 (11754022_s_at) / RFU A4GNT (11735810_at) / Fold change /veh A4GNT (11735810_at) / RFU PRB3 (11715151_x_at) / Fold change /veh PRB3 (11715151_x_at) / RFU TUBB4B (11761932_at) / Fold change /veh TUBB4B (11761932_at) / RFU CAPN14 (11732068_a_at) / Fold change /veh CAPN14 (11732068_a_at) / RFU TMCC2 (11721928_a_at) / Fold change /veh TMCC2 (11721928_a_at) / RFU IRGQ (11745062_a_at) / Fold change /veh IRGQ (11745062_a_at) / RFU FAM174B (11720279_a_at) / Fold change /veh FAM174B (11720279_a_at) / RFU TMPRSS4 (11748680_a_at) / Fold change /veh TMPRSS4 (11748680_a_at) / RFU FAM212B (11763350_a_at) / Fold change /veh FAM212B (11763350_a_at) / RFU PLEKHG5 (11743358_a_at) / Fold change /veh PLEKHG5 (11743358_a_at) / RFU ZSCAN30 (11745921_a_at) / Fold change /veh ZSCAN30 (11745921_a_at) / RFU CMKLR1 (11741424_a_at) / Fold change /veh CMKLR1 (11741424_a_at) / RFU LOC101060620 /// MAPK8IP1 (11723275_at) / Fold change /veh LOC101060620 /// MAPK8IP1 (11723275_at) / RFU SPTSSB (11747773_x_at) / Fold change /veh SPTSSB (11747773_x_at) / RFU PRSS12 (11739890_at) / Fold change /veh PRSS12 (11739890_at) / RFU BIN1 (11741810_x_at) / Fold change /veh BIN1 (11741810_x_at) / RFU WNT11 (11732464_a_at) / Fold change /veh WNT11 (11732464_a_at) / RFU C10orf10 (11716521_a_at) / Fold change /veh C10orf10 (11716521_a_at) / RFU C5orf56 (11738089_at) / Fold change /veh C5orf56 (11738089_at) / RFU CYB561 (11721691_x_at) / Fold change /veh CYB561 (11721691_x_at) / RFU ANKRD19P (11752326_a_at) / Fold change /veh ANKRD19P (11752326_a_at) / RFU OR2T12 /// OR2T33 /// OR2T8 (11738714_s_at) / Fold change /veh OR2T12 /// OR2T33 /// OR2T8 (11738714_s_at) / RFU VCAN (11748164_a_at) / Fold change /veh VCAN (11748164_a_at) / RFU JSRP1 (11732532_at) / Fold change /veh JSRP1 (11732532_at) / RFU KRTAP10-11 (11738290_x_at) / Fold change /veh KRTAP10-11 (11738290_x_at) / RFU MYO3A (11730013_a_at) / Fold change /veh MYO3A (11730013_a_at) / RFU EBF3 (11725865_a_at) / Fold change /veh EBF3 (11725865_a_at) / RFU CAMK2N1 (11719241_x_at) / Fold change /veh CAMK2N1 (11719241_x_at) / RFU C5orf56 (11738088_a_at) / Fold change /veh C5orf56 (11738088_a_at) / RFU OLFML3 (11715873_a_at) / Fold change /veh OLFML3 (11715873_a_at) / RFU LOC100653217 /// NTM (11731650_a_at) / Fold change /veh LOC100653217 /// NTM (11731650_a_at) / RFU MAPK11 (11762145_a_at) / Fold change /veh MAPK11 (11762145_a_at) / RFU FIZ1 (11724087_x_at) / Fold change /veh FIZ1 (11724087_x_at) / RFU OASL (11726364_x_at) / Fold change /veh OASL (11726364_x_at) / RFU SOX15 (11748057_x_at) / Fold change /veh SOX15 (11748057_x_at) / RFU CD79A (11719716_a_at) / Fold change /veh CD79A (11719716_a_at) / RFU HIST1H1D (11736915_at) / Fold change /veh HIST1H1D (11736915_at) / RFU CASKIN2 (11723855_a_at) / Fold change /veh CASKIN2 (11723855_a_at) / RFU LOC730098 (11760151_x_at) / Fold change /veh LOC730098 (11760151_x_at) / RFU OR4N2 (11742367_at) / Fold change /veh OR4N2 (11742367_at) / RFU PRRT2 (11749266_a_at) / Fold change /veh PRRT2 (11749266_a_at) / RFU SNX32 (11753110_a_at) / Fold change /veh SNX32 (11753110_a_at) / RFU CDHR5 (11726645_a_at) / Fold change /veh CDHR5 (11726645_a_at) / RFU RCAN1 (11760418_a_at) / Fold change /veh RCAN1 (11760418_a_at) / RFU FAM167A (11723789_a_at) / Fold change /veh FAM167A (11723789_a_at) / RFU FAM26E (11764081_at) / Fold change /veh FAM26E (11764081_at) / RFU ISYNA1 (11749810_s_at) / Fold change /veh ISYNA1 (11749810_s_at) / RFU ACY1 (11761880_at) / Fold change /veh ACY1 (11761880_at) / RFU 11764098_at / Fold change /veh 11764098_at / RFU SAMD14 (11745864_x_at) / Fold change /veh SAMD14 (11745864_x_at) / RFU NPB (11741838_a_at) / Fold change /veh NPB (11741838_a_at) / RFU TMPRSS6 (11731388_a_at) / Fold change /veh TMPRSS6 (11731388_a_at) / RFU KRTAP10-2 (11738614_at) / Fold change /veh KRTAP10-2 (11738614_at) / RFU ARHGAP8 /// PRR5-ARHGAP8 (11727945_x_at) / Fold change /veh ARHGAP8 /// PRR5-ARHGAP8 (11727945_x_at) / RFU KRTAP5-7 /// NADSYN1 (11734609_at) / Fold change /veh KRTAP5-7 /// NADSYN1 (11734609_at) / RFU RASL12 (11751679_a_at) / Fold change /veh RASL12 (11751679_a_at) / RFU CDKN2B (11736163_a_at) / Fold change /veh CDKN2B (11736163_a_at) / RFU PRF1 (11729649_at) / Fold change /veh PRF1 (11729649_at) / RFU, ZNF638 /// ZNF638-IT1 / Fold change vs veh, ZNF638 /// ZNF638-IT1 / RFU, PANK3 / Fold change vs veh, PANK3 / RFU, SH3YL1 / Fold change vs veh, SH3YL1 / RFU, ZEB2 / Fold change vs veh, ZEB2 / RFU, NRIP1 / Fold change vs veh, NRIP1 / RFU, PTTG1IP / Fold change vs veh, PTTG1IP / RFU, CAPN2 / Fold change vs veh, CAPN2 / RFU, MED14 / Fold change vs veh, MED14 / RFU, SNORA58 / Fold change vs veh, SNORA58 / RFU, C1orf63 / Fold change vs veh, C1orf63 / RFU, LRRFIP1 / Fold change vs veh, LRRFIP1 / RFU, NDUFAF7 / Fold change vs veh, NDUFAF7 / RFU, SLC12A2 / Fold change vs veh, SLC12A2 / RFU, IBTK / Fold change vs veh, IBTK / RFU, ESF1 / Fold change vs veh, ESF1 / Fold change vs veh, TMEM50B / RFU, TAOK1 / Fold change vs veh, TAOK1 / RFU, ACBD3 / Fold change vs veh, ACBD3 / RFU, TMA16 / Fold change vs veh, TMA16 / RFU, RWDD3 / Fold change vs veh, RWDD3 / RFU, BCAT1 / Fold change vs veh, BCAT1 / RFU, EDEM3 / Fold change vs veh, EDEM3 / RFU, TMEM33 / Fold change vs veh, TMEM33 / RFU, WDR75 / Fold change vs veh, WDR75 / RFU, AHCTF1 / Fold change vs veh, AHCTF1 / RFU, TFRC / Fold change vs veh, TFRC / RFU, ZDHHC17 / Fold change vs veh, ZDHHC17 / RFU, NOM1 / Fold change vs veh, NOM1 / RFU, ARL8B / Fold change vs veh, ARL8B / RFU, ZBTB11 / Fold change vs veh, ZBTB11 / RFU, TAMM41 / Fold change vs veh, TAMM41 / RFU, KIAA1704 /// LOC100996395 / Fold change vs veh, KIAA1704 /// LOC100996395 / RFU, ING1 / Fold change vs veh, ING1 / RFU, TRMT61B / Fold change vs veh, TRMT61B / RFU, FUBP3 / Fold change vs veh, FUBP3 / RFU, TP53 / Fold change vs veh, TP53 / RFU, TNKS2 / Fold change vs veh, TNKS2 / RFU, ZFP14 / Fold change vs veh, ZFP14 / RFU, ACTR2 / Fold change vs veh, ACTR2 / RFU, PPP3R1 / Fold change vs veh, PPP3R1 / RFU, PIK3R1 / Fold change vs veh, PIK3R1 / RFU, HNRNPA1 / Fold change vs veh, HNRNPA1 / RFU, RNF170 / Fold change vs veh, RNF170 / RFU, ZNF28 / Fold change vs veh, ZNF28 / RFU, RNGTT / Fold change vs veh, RNGTT / RFU, OGT / Fold change vs veh, OGT / RFU, BRD1 / Fold change vs veh, BRD1 / RFU, MARS / Fold change vs veh, MARS / RFU, ZNF655 / Fold change vs veh, ZNF655 / RFU, FAHD1 / Fold change vs veh, FAHD1 / RFU, BDP1 / Fold change vs veh, BDP1 / RFU, LRRCC1 / Fold change vs veh, LRRCC1 / RFU, ARID1A / Fold change vs veh, ARID1A / RFU, ZNF146 / Fold change vs veh, ZNF146 / RFU, ZNF330 / Fold change vs veh, ZNF330 / RFU, GPN3 / Fold change vs veh, GPN3 / RFU, C9orf123 / Fold change vs veh, C9orf123 / RFU, N4BP2L2 / Fold change vs veh, N4BP2L2 / RFU, ARFIP1 / Fold change vs veh, ARFIP1 / RFU, FAM179B / Fold change vs veh, FAM179B / RFU, BCL10 / Fold change vs veh, BCL10 / RFU, UHRF1BP1L / Fold change vs veh, UHRF1BP1L / RFU, BET1 / Fold change vs veh, BET1 / RFU, CNOT2 / Fold change vs veh, CNOT2 / RFU, ZNF268 / Fold change vs veh, ZNF268 / Fold change vs veh, ZNF507 / RFU, DGCR2 / Fold change vs veh, DGCR2 / RFU, WDSUB1 / Fold change vs veh, WDSUB1 / Fold change vs veh, HSP90B1 /// MIR3652 / RFU, ADSS / Fold change vs veh, ADSS / RFU, GK / Fold change vs veh, GK / RFU, ZNF148 / Fold change vs veh, ZNF148 / RFU, TAF9 / Fold change vs veh, TAF9 / RFU, SLC1A5 / Fold change vs veh, SLC1A5 / RFU, SLMO2 / Fold change vs veh, SLMO2 / RFU, ABCC4 / Fold change vs veh, ABCC4 / RFU, LOC101060439 /// RAP1B / Fold change vs veh, LOC101060439 /// RAP1B / RFU, RFX7 / Fold change vs veh, RFX7 / RFU, GTPBP10 / Fold change vs veh, GTPBP10 / RFU, CNEP1R1 / Fold change vs veh, CNEP1R1 / RFU, BIVM-ERCC5 /// ERCC5 / Fold change vs veh, BIVM-ERCC5 /// ERCC5 / RFU, ILF3 / Fold change vs veh, ILF3 / RFU 11762660_at / Fold change /veh 11762660_at / RFU VCAN (11757783_s_at) / Fold change /veh VCAN (11757783_s_at) / RFU DDX43 (11728927_at) / Fold change /veh DDX43 (11728927_at) / RFU KRT8 (11758188_x_at) / Fold change /veh KRT8 (11758188_x_at) / RFU NKD1 (11759106_at) / Fold change /veh NKD1 (11759106_at) / RFU SRD5A1 (11742802_a_at) / Fold change /veh SRD5A1 (11742802_a_at) / RFU TPSAB1 /// TPSB2 (11721975_s_at) / Fold change /veh TPSAB1 /// TPSB2 (11721975_s_at) / RFU GSTM3 (11746129_a_at) / Fold change /veh GSTM3 (11746129_a_at) / RFU IL23R (11737362_x_at) / Fold change /veh IL23R (11737362_x_at) / RFU TMEM51 (11727254_a_at) / Fold change /veh TMEM51 (11727254_a_at) / RFU PIWIL2 (11732686_x_at) / Fold change /veh PIWIL2 (11732686_x_at) / RFU ORM1 (11744905_x_at) / Fold change /veh ORM1 (11744905_x_at) / RFU CCDC152 (11743942_at) / Fold change /veh CCDC152 (11743942_at) / RFU ECM1 (11717891_a_at) / Fold change /veh ECM1 (11717891_a_at) / RFU IL23R (11748794_a_at) / Fold change /veh IL23R (11748794_a_at) / RFU TNFAIP8L3 (11732012_x_at) / Fold change /veh TNFAIP8L3 (11732012_x_at) / RFU MBOAT4 (11741988_at) / Fold change /veh MBOAT4 (11741988_at) / RFU 11764193_at / Fold change /veh 11764193_at / RFU TMEM53 (11763286_at) / Fold change /veh TMEM53 (11763286_at) / RFU MAGEB2 (11727129_at) / Fold change /veh MAGEB2 (11727129_at) / RFU TMEM200A (11744735_a_at) / Fold change /veh TMEM200A (11744735_a_at) / RFU CCDC152 (11751479_a_at) / Fold change /veh CCDC152 (11751479_a_at) / RFU FAM211A (11726209_a_at) / Fold change /veh FAM211A (11726209_a_at) / RFU RGS16 (11746705_a_at) / Fold change /veh RGS16 (11746705_a_at) / RFU VCAN (11755009_s_at) / Fold change /veh VCAN (11755009_s_at) / RFU RHOB (11743442_s_at) / Fold change /veh RHOB (11743442_s_at) / RFU RGS16 (11720943_a_at) / Fold change /veh RGS16 (11720943_a_at) / RFU RGS16 (11720944_at) / Fold change /veh RGS16 (11720944_at) / RFU, VPS4B / Fold change vs veh, VPS4B / RFU, CREB1 / Fold change vs veh, CREB1 / RFU, DNAJC13 / Fold change vs veh, DNAJC13 / RFU, GNAQ / Fold change vs veh, GNAQ / RFU, CDK5R1 / Fold change vs veh, CDK5R1 / RFU, ZRANB3 / Fold change vs veh, ZRANB3 / RFU, CUL4A / Fold change vs veh, CUL4A / RFU, CCNY / Fold change vs veh, CCNY / RFU, UFL1 / Fold change vs veh, UFL1 / RFU, COG3 / Fold change vs veh, COG3 / RFU, DIAPH2 / Fold change vs veh, DIAPH2 / RFU, SKA2 / Fold change vs veh, SKA2 / RFU, AFF3 / Fold change vs veh, AFF3 / RFU, LMF1 / Fold change vs veh, LMF1 / RFU, IPO11 / Fold change vs veh, IPO11 / RFU, DFFB / Fold change vs veh, DFFB / RFU, FOXP1 / Fold change vs veh, FOXP1 / RFU, CARD8 / Fold change vs veh, CARD8 / RFU, STRN3 / Fold change vs veh, STRN3 / RFU, ADK / Fold change vs veh, ADK / RFU, RASSF2 / Fold change vs veh, RASSF2 / RFU, WIPF1 / Fold change vs veh, WIPF1 / RFU, LARP1B / Fold change vs veh, LARP1B / RFU, RASA1 / Fold change vs veh, RASA1 / RFU, RB1 / Fold change vs veh, RB1 / RFU, PPFIA1 / Fold change vs veh, PPFIA1 / RFU, MAT2A / Fold change vs veh, MAT2A / RFU, CCT5 / Fold change vs veh, CCT5 / RFU, WDR92 / Fold change vs veh, WDR92 / RFU, CUX1 / Fold change vs veh, CUX1 / RFU, TTC7A / Fold change vs veh, TTC7A / RFU, TMEM135 / Fold change vs veh, TMEM135 / RFU, DEPTOR / Fold change vs veh, DEPTOR / RFU, CPM / Fold change vs veh, CPM / RFU, DNAJB6 / Fold change vs veh, DNAJB6 / RFU, CACNA2D3 / Fold change vs veh, CACNA2D3 / RFU, DTX4 / Fold change vs veh, DTX4 / RFU, TFCP2 / Fold change vs veh, TFCP2 / RFU, GMCL1 /// GMCL1P1 / Fold change vs veh, GMCL1 /// GMCL1P1 / RFU, AEBP2 / Fold change vs veh, AEBP2 / RFU, SNHG1 /// SNORD22 /// SNORD25 /// SNORD26 /// SNORD27 /// SNORD28 /// SNORD29 /// SNORD31 / Fold change vs veh, SNHG1 /// SNORD22 /// SNORD25 /// SNORD26 /// SNORD27 /// SNORD28 /// SNORD29 /// SNORD31 / Fold change (Aza/veh), C12orf56 (ProbeSet 11735607_a_at) / Fold change (ACY-1035/veh), C12orf56 (ProbeSet 11735607_a_at) / Fold change (Aza/veh), FGFR1OP (ProbeSet 11751329_s_at) / Fold change (ACY-1035/veh), FGFR1OP (ProbeSet 11751329_s_at) / Fold change (Aza/veh), VPS36 (ProbeSet 11739960_a_at) / Fold change (ACY-1035/veh), VPS36 (ProbeSet 11739960_a_at) / RFU SYPL1 (11715823_x_at) / Fold change /veh SYPL1 (11715823_x_at) / RFU IGFBP7 (11715501_s_at) / Fold change /veh IGFBP7 (11715501_s_at) / RFU REEP3 (11722064_at) / Fold change /veh REEP3 (11722064_at) / RFU IGLL1 (11728026_x_at) / Fold change /veh IGLL1 (11728026_x_at): dose or concentration left out as unconfirmed
Settings: ProbeSet 11749645_x_at; LIST B

## Nc1ncn([C@@H]2O[C@H](CO)[C@@H](O)[C@H]2O)c(=O)n1 [azacitidine]
  Fold change vs veh, ZNF268: 0.97
